According to publication PMC7864192 (Cancers, 2021):
Values joined by “and” are separate entries in the source; they are usually repeats but may differ in a detail not shown here. Equal entries are not always repeated. Where two headings read alike, the source gives them in different places.

Columns and labels:
[1] = tested on: SVOG-3e immortalized human granulosa cell line; assay: Cell viability drug screen (72 h), SVOG-3e control; assay type: cell-based; conditions: monotherapy
Procedure: (§1) KGN was cultured in conditions identical to AGCT-patient-derived cell lines.
(§2) Cell lines were seeded at a density of 500 cells/well in 40 uL in 384-well plates (Corning, NY, USA) with the Multidrop™ cell dispenser (Thermo Fischer Scientific, Waltham, MA, USA) and sealed with Breathe-Easy® membrane (Sigma-Aldrich, St. Louis, MO, USA) to prevent evaporation. The SVOG-3e line was seeded at 1000 cells/well due to contact-dependent growth requirements. For each cell line, three biological repeats and two technical repeats each were performed in order to ensure the validity of the drug screens. […] Subsequently, 11 drugs and 12 drug combinations were dispensed and all wells (excluding blanks and non-DMSO control wells) were normalized to 1% DMSO using the HP Tecan D300e Digital Dispenser (Hewlett-Packard, Palo Alto, CA, USA). […] After incubation, luminescence excitation was assessed in the Spectramax reader (Molecular Devices, San Jose, CA, USA) (top read, luminescence excitation at 500 nm) and raw data were processed in Microsoft Excel to subtract background luminescence. […]
(§3) Overall cell survival (in %) was plotted against the drug concentration range of each drug (in log10[μM]) using GraphPad Prism 8.3.1. […] The IC50 values were calculated based on the Chou–Talalay method using Compusyn software [55]. […]

[2] = tested on: GCPA113 T1.II patient-derived AGCT cell line; assay: Cell viability drug screen (Cell Titer Glo 2.0, 72 h), mono- and combination therapy, GCPA113T1.II; conditions: for DRI (Fa=0,5): GCPA113T1II; for IC50: Homo sapiens
Procedure: (§4) Cell lines were seeded at a density of 500 cells/well in 40 uL in 384-well plates (Corning, NY, USA) with the Multidrop™ cell dispenser (Thermo Fischer Scientific, Waltham, MA, USA) and sealed with Breathe-Easy® membrane (Sigma-Aldrich, St. Louis, MO, USA) to prevent evaporation. […] For each cell line, three biological repeats and two technical repeats each were performed in order to ensure the validity of the drug screens. […] Subsequently, 11 drugs and 12 drug combinations were dispensed and all wells (excluding blanks and non-DMSO control wells) were normalized to 1% DMSO using the HP Tecan D300e Digital Dispenser (Hewlett-Packard, Palo Alto, CA, USA). […] Next, the plates were covered with the Breathe-Easy membrane and incubated. After 72 h, the Multidrop dispensed 15 uL per well of Cell Titer Glo 2.0 (Thermo Fischer Scientific, Waltham, MA, USA) and plates were incubated in the dark for 10 min. After incubation, luminescence excitation was assessed in the Spectramax reader (Molecular Devices, San Jose, CA, USA) (top read, luminescence excitation at 500 nm) and raw data were processed in Microsoft Excel to subtract background luminescence. The Z-factor, a mathematical method used to quantify the quality of a drug screen based on the calculation of the separation band between the values of the positive and negative controls, was utilized to assess the quality of drug screens [54]. Screens with a Z-factor value of >0.5 were used for further analysis.
(§5) Overall cell survival (in %) was plotted against the drug concentration range of each drug (in log10[μM]) using GraphPad Prism 8.3.1. Values that exceeded 100% survival (within +20% biological deviation) were normalized to 100% survival. Similarly, values below 0% cell survival (within −20% biological deviation) were normalized to 0% survival. Values exceeding this deviation were excluded. Dose–response curves were obtained using the model “log(inhibitor) vs. variable slope (normalized response)” to fit the dose–response curves and R^2 values were used to indicate how well the model fit the data (Supplementary Materials Figures S4 and S5). […] The IC50 values were calculated based on the Chou–Talalay method using Compusyn software [55]. For anti-hormonal treatment, mostly provided as maintenance therapy, we used IC10 values in addition to the IC50.
(§6) In addition to the 11 monotherapies, 12 drug combinations were tested (Table 3) simultaneously with the individual drug treatments in the same 384-well plate. […] Synergy was evaluated using the mass action law, a systematic analysis assessing dose–response dynamics in a cost-effective manner [56, 57]. The combination index (CI) was used to indicate antagonistic (CI > 1) additive (CI = 1) and synergistic (CI < 1) effects [55].

[3] = tested on: GCPA113 T1.I patient-derived AGCT cell line; assay: Cell viability drug screen (Cell Titer Glo 2.0, 72 h), mono- and combination therapy, GCPA113T1.I; conditions: for DRI (Fa=0,5): GCPA113T1I; for IC50: Homo sapiens
Procedure: as §4, §5, §6

[4] = tested on: GCPA007 T2.I patient-derived AGCT cell line; assay: Cell viability drug screen (Cell Titer Glo 2.0, 72 h), mono- and combination therapy, GCPA007T2.I; conditions: for IC50: Homo sapiens, 72 h, read-out: IC50 in monotherapy; for DRI (Fa=0,5): GCPA007T2I
Procedure: (§7) Cell lines were seeded at a density of 500 cells/well in 40 uL in 384-well plates (Corning, NY, USA) with the Multidrop™ cell dispenser (Thermo Fischer Scientific, Waltham, MA, USA) and sealed with Breathe-Easy® membrane (Sigma-Aldrich, St. Louis, MO, USA) to prevent evaporation. The SVOG-3e line was seeded at 1000 cells/well due to contact-dependent growth requirements. For each cell line, three biological repeats and two technical repeats each were performed in order to ensure the validity of the drug screens. […] Subsequently, 11 drugs and 12 drug combinations were dispensed and all wells (excluding blanks and non-DMSO control wells) were normalized to 1% DMSO using the HP Tecan D300e Digital Dispenser (Hewlett-Packard, Palo Alto, CA, USA). All drugs were applied in linear concentration ranges (Table 2), including 16 data points to enable combination drug testing at constant ratios (Table 3). Next, the plates were covered with the Breathe-Easy membrane and incubated. After 72 h, the Multidrop dispensed 15 uL per well of Cell Titer Glo 2.0 (Thermo Fischer Scientific, Waltham, MA, USA) and plates were incubated in the dark for 10 min. After incubation, luminescence excitation was assessed in the Spectramax reader (Molecular Devices, San Jose, CA, USA) (top read, luminescence excitation at 500 nm) and raw data were processed in Microsoft Excel to subtract background luminescence. […] Screens with a Z-factor value of >0.5 were used for further analysis.
(§8) Overall cell survival (in %) was plotted against the drug concentration range of each drug (in log10[μM]) using GraphPad Prism 8.3.1. Values that exceeded 100% survival (within +20% biological deviation) were normalized to 100% survival. Similarly, values below 0% cell survival (within −20% biological deviation) were normalized to 0% survival. Values exceeding this deviation were excluded. Dose–response curves were obtained using the model “log(inhibitor) vs. variable slope (normalized response)” to fit the dose–response curves and R^2 values were used to indicate how well the model fit the data (Supplementary Materials Figures S4 and S5). […] The maximum plasma concentration (Cmax) and the plasma concentration at steady state (Css) were used as toxicity thresholds. The Cmax was utilized for drugs in which short, high-dosage time courses are required, while the Css was used for maintenance therapy regimes such as anti-hormonal treatment. […] The IC50 values were calculated based on the Chou–Talalay method using Compusyn software [55]. For anti-hormonal treatment, mostly provided as maintenance therapy, we used IC10 values in addition to the IC50.
as §6

AGCT cell lines = assay: Cell viability drug screen (72 h), summary over AGCT cell lines (12 patient-derived, with or without KGN); assay type: cell-based, human
Procedure: (§9) Cell lines were seeded at a density of 500 cells/well in 40 uL in 384-well plates (Corning, NY, USA) with the Multidrop™ cell dispenser (Thermo Fischer Scientific, Waltham, MA, USA) and sealed with Breathe-Easy® membrane (Sigma-Aldrich, St. Louis, MO, USA) to prevent evaporation. The SVOG-3e line was seeded at 1000 cells/well due to contact-dependent growth requirements. For each cell line, three biological repeats and two technical repeats each were performed in order to ensure the validity of the drug screens. […] Subsequently, 11 drugs and 12 drug combinations were dispensed and all wells (excluding blanks and non-DMSO control wells) were normalized to 1% DMSO using the HP Tecan D300e Digital Dispenser (Hewlett-Packard, Palo Alto, CA, USA). All drugs were applied in linear concentration ranges (Table 2), including 16 data points to enable combination drug testing at constant ratios (Table 3). Next, the plates were covered with the Breathe-Easy membrane and incubated. After 72 h, the Multidrop dispensed 15 uL per well of Cell Titer Glo 2.0 (Thermo Fischer Scientific, Waltham, MA, USA) and plates were incubated in the dark for 10 min. After incubation, luminescence excitation was assessed in the Spectramax reader (Molecular Devices, San Jose, CA, USA) (top read, luminescence excitation at 500 nm) and raw data were processed in Microsoft Excel to subtract background luminescence. The Z-factor, a mathematical method used to quantify the quality of a drug screen based on the calculation of the separation band between the values of the positive and negative controls, was utilized to assess the quality of drug screens [54]. Screens with a Z-factor value of >0.5 were used for further analysis.
as §8, §6

[5] = tested on: KGN cells (AGCT cell line); assay: Cell viability drug screen (Cell Titer Glo 2.0, 72 h), mono- and combination therapy, KGN; conditions: for IC50: Homo sapiens, read-out: IC50 in monotherapy
Procedure: as §1, §7, §5

[6] = tested on: GCPA096 T1.II patient-derived AGCT cell line; assay: Cell viability drug screen (Cell Titer Glo 2.0, 72 h), mono- and combination therapy, GCPA096T1.II; conditions: for DRI (Fa=0,5): GCPA096T1II; for IC50: Homo sapiens, 72 h, read-out: IC50 in monotherapy
Procedure: as §7, §8, §6

[7] = tested on: GCPA096 T1.V patient-derived AGCT cell line; assay: Cell viability drug screen (Cell Titer Glo 2.0, 72 h), mono- and combination therapy, GCPA096T1.V; conditions: for DRI (Fa=0,5): GCPA096T1V; for IC50: Homo sapiens, 72 h, read-out: IC50 in monotherapy
Procedure: as §7, §8, §6

[8] = cited from earlier work
[9] = tested on: GCPA096 T1.I patient-derived AGCT cell line; assay: Cell viability drug screen (Cell Titer Glo 2.0, 72 h), mono- and combination therapy, GCPA096T1.I; conditions: for DRI (Fa=0,5): GCPA096T1I; for IC50: Homo sapiens, read-out: IC50 in monotherapy
Procedure: as §4, §5, §6

[10] = tested on: GCPA108 T3.IV patient-derived AGCT cell line; assay: Cell viability drug screen (Cell Titer Glo 2.0, 72 h), mono- and combination therapy, GCPA108T3.IV; conditions: for DRI (Fa=0,5): GCPA108T3IV; for IC50: Homo sapiens, read-out: IC50 in monotherapy
Procedure: as §9, §8, §6

[11] = tested on: GCPA028 T1.II patient-derived AGCT cell line; assay: Cell viability drug screen (Cell Titer Glo 2.0, 72 h), mono- and combination therapy, GCPA028; conditions: for IC50: Homo sapiens, read-out: IC50 in monotherapy
Procedure: as §7, §8, §6

[12] = tested on: GCPA113 T1.III patient-derived AGCT cell line; assay: Cell viability drug screen (Cell Titer Glo 2.0, 72 h), mono- and combination therapy, GCPA113T1.III; conditions: for DRI (Fa=0,5): GCPA113T1III; for IC50: Homo sapiens
Procedure: as §4, §5, §6

[13] = tested on: GCPA096 T1.XVI patient-derived AGCT cell line; assay: Cell viability drug screen (Cell Titer Glo 2.0, 72 h), mono- and combination therapy, GCPA096T1.XVI; conditions: for DRI (Fa=0,5): GCPA096T1XVI; for IC50: Homo sapiens, read-out: IC50 in monotherapy
Procedure: as §7, §8, §6

[14] = tested on: GCPA096 T1.XV patient-derived AGCT cell line; assay: Cell viability drug screen (Cell Titer Glo 2.0, 72 h), mono- and combination therapy, GCPA096T1.XV; conditions: for DRI (Fa=0,5): GCPA096T1XV; for IC50: Homo sapiens, 72 h, read-out: IC50 in monotherapy
Procedure: as §9, §8, §6

[15] = tested on: GCPA007 T2.IV patient-derived AGCT cell line; assay: Cell viability drug screen (Cell Titer Glo 2.0, 72 h), mono- and combination therapy, GCPA007T2.IV; conditions: for DRI (Fa=0,5): GCPA007T2IV; for IC50: Homo sapiens, read-out: IC50 in monotherapy
Procedure: as §4, §5, §6

[16] = tested on: MCF-7 human breast cancer cell line; assay: Cell viability drug screen (72 h), MCF-7 positive control for anti-hormonal therapies; assay type: cell-based; conditions: monotherapy
Procedure: as §1, §2, §3

[17] = tested on: aromatase inhibitor resistant metastatic breast cancer; conditions: everolimus added to tamoxifen; postmenopausal women; cited from earlier work
[18] = drug within Carbo+Pacli+Alpelisib
[19] = drug within Everolimus+Alpelisib
[20] = 72 h, read-out: IC50 in monotherapy
[21] = human maximum or steady state plasma concentration, log10 of the uM value
[22] = human plasma Cmax/Css, log10 of uM value, from phase I/II clinical trials
[23] = human plasma maximum/steady state concentration, ref phase I/II clinical trials
[24] = human plasma, maximum or steady state concentration, log10 of uM value
[25] = human plasma, log10 of uM, phase I/II trials
[26] = read-out: Cmax/Css plasma, human maximum or steady state plasma concentration
[27] = read-out: Cmax/Css plasma, human plasma Cmax/Css, from phase I/II clinical trials
[28] = read-out: Cmax/Css plasma, human plasma maximum/steady state concentration, ref phase I/II clinical trials
[29] = read-out: Cmax/Css plasma, human plasma, maximum or steady state concentration
[30] = read-out: Cmax/Css plasma, human plasma, phase I/II trials
[31] = in combination Carbo+Pacli+Alpelisib
[32] = in combination Everolimus+Alpelisib
[33] = GCPA028, in combination Everolimus+Alpelisib

Cc1nc(NC(=O)N2CCC[C@H]2C(N)=O)sc1-c1ccnc(C(C)(C)C(F)(F)F)c1 [Alpelisib]
IC50 [1]: 7.55 µM
DRI (Fa=0,5) [2, 18]: 1.81
DRI (Fa=0,5) [2, 19]: 1.09
IC50 [2]: 21.4 µM
IC50 [2, 20]: 21.4 µM
IC50 ([2]; read-out: IC50 in monotherapy): 21.4 µM
DRI (Fa=0,5) ([3]; in Carbo+Pacli+Alpelisib): 3.06
DRI (Fa=0,5) ([3]; in Everolimus+Alpelisib): 0.95
IC50 [3]: 9.59 µM
IC50 [3, 20]: 9.59 µM
IC50 ([3]; read-out: IC50 in monotherapy): 9.59 µM
IC50 [4]: 22 µM
DRI (Fa=0,5) ([4]; in Carbo+Pacli+Alpelisib (10:1:2)): 10.78
DRI (Fa=0,5) ([4]; in Everolimus+Alpelisib (1:2)): 1.24
IC50 (AGCT cell lines; Homo sapiens, median over AGCT cell lines, read-out: median IC50 in monotherapy): 15 µM
IC50 ([5]; 72 h): 24.4 µM
IC50 [5]: 24.4 µM
DRI (Fa=0,5) [5, 18]: 10.9278
DRI (Fa=0,5) [5, 19]: 1.384
DRI (Fa=0,5) [6, 18]: 2.15
DRI (Fa=0,5) [6, 19]: 1.5
IC50 [6]: 12.6 µM
DRI (Fa=0,5) [7, 18]: 2.2
DRI (Fa=0,5) [7, 19]: 1.57
IC50 [7]: 15 µM
Cmax/Css plasma (Log 10) [8, 21]: 0.84 Log 10
Cmax/Css plasma (Log 10) [8, 22]: 0.84 Log 10
Cmax/Css plasma (Log 10) [8, 23]: 0.84 Log 10
Cmax/Css plasma (Log 10) [8, 24]: 0.84
Cmax/Css plasma (Log 10) [8, 25]: 0.84
Cmax ([8]; read-out: Cmax (maximum drug concentration achieved in plasma), human plasma, phase I/II studies): 6.9 µM and 6.92 µM
Cmax [8, 26]: 6.92 µM
Cmax [8, 27]: 6.92 µM
Cmax [8, 28]: 6.92 µM
Cmax [8, 29]: 6.92 µM
Cmax [8, 30]: 6.92 µM
DRI (Fa=0,5) [9, 31]: 1.7
DRI (Fa=0,5) [9, 32]: 1.24
IC50 ([9]; 72 h): 11.7 µM
IC50 [9]: 11.7 µM
DRI (Fa=0,5) ([10]; in Carbo+Pacli+Alpelisib): 13.6802
DRI (Fa=0,5) ([10]; in Everolimus+Alpelisib): 5.603
IC50 ([10]; 72 h): 53.9 µM
IC50 [10]: 53.9 µM
DRI (Fa=0,5) ([11]; GCPA028, in combination Carbo+Pacli+Alpelisib): 4.95
DRI (Fa=0,5) [11, 33]: 0.99
IC50 ([11]; 72 h): 22.8 µM
IC50 [11]: 22.8 µM
DRI (Fa=0,5) [12, 18]: 5.76
DRI (Fa=0,5) [12, 19]: 1.89
IC50 [12]: 11.5 µM
IC50 [12, 20]: 11.5 µM
IC50 ([12]; read-out: IC50 in monotherapy): 11.5 µM
DRI (Fa=0,5) ([13]; in Carbo+Pacli+Alpelisib): 1.95
DRI (Fa=0,5) ([13]; in Everolimus+Alpelisib): 1.7
IC50 ([13]; 72 h): 23.5 µM
IC50 [13]: 23.5 µM
DRI (Fa=0,5) [14, 18]: 2.12
DRI (Fa=0,5) [14, 19]: 1.36
IC50 [14]: 14.6 µM
DRI (Fa=0,5) [15, 31]: 4.44
DRI (Fa=0,5) [15, 32]: 10.73
IC50 ([15]; 72 h): 26.7 µM
IC50 [15]: 26.7 µM

CC(C)(C#N)c1cc(Cn2cncn2)cc(C(C)(C)C#N)c1 [Anastrozole]
IC50 [2, 20]: > 200 µM
IC50 [3, 20]: > 200 µM
IC50 [4]: > 200 µM
effect on cell viability at tolerable concentrations [16]: did not decrease cell viability at tolerable concentrations
IC50 ([5]; 72 h): > 200 µM
IC50 [6]: > 200 µM
IC50 [7]: > 200 µM
IC50 ([9]; 72 h): > 200 µM
IC50 ([10]; 72 h): > 200 µM
IC50 ([11]; 72 h): > 200 µM
IC50 [12, 20]: > 200 µM
IC50 ([13]; 72 h): > 200 µM
IC50 [14]: > 200 µM
IC50 ([15]; 72 h): > 200 µM

CO[C@H]1C[C@@H]2CC[C@@H](C)[C@@](O)(O2)C(=O)C(=O)N2CCCC[C@H]2C(=O)O[C@H]([C@H](C)C[C@@H]2CC[C@@H](OCCO)[C@H](OC)C2)CC(=O)[C@H](C)/C=C(\C)[C@@H](O)[C@@H](OC)C(=O)[C@H](C)C[C@H](C)/C=C/C=C/C=C/1C [Everolimus]
DRI (Fa=0,5) [2, 19]: 11.87
IC50 [2, 20]: > 50 µM
IC50 ([2]; read-out: IC50 in monotherapy): > 50 µM
increase of time to progression [17]: 4.1 months
reduction of death risk [17]: 55%
DRI (Fa=0,5) ([3]; in Everolimus+Alpelisib): 20.32
IC50 [3, 20]: > 50 µM
IC50 ([3]; read-out: IC50 in monotherapy): > 50 µM
IC50 [4]: 27.8 µM
DRI (Fa=0,5) ([4]; in Everolimus+Alpelisib (1:2)): 3.15
cell lines with some degree of synergy (AGCT cell lines; everolimus with chemotherapy, 13 cell lines): 9 of the 13
IC50 ([5]; 72 h): 45.2 µM
IC50 [5]: 45.2 µM
DRI (Fa=0,5) [5, 19]: 5.131
DRI (Fa=0,5) [6, 19]: 13.23
IC50 [6]: > 50 µM
DRI (Fa=0,5) [7, 19]: 12.7
IC50 [7]: > 50 µM
Cmax/Css plasma (Log 10) [8, 21]: -1.19 Log 10
Cmax/Css plasma (Log 10) [8, 22]: -1.19 Log 10
Cmax/Css plasma (Log 10) [8, 23]: -1.19 Log 10
Cmax/Css plasma (Log 10) [8, 24]: -1.19
Cmax/Css plasma (Log 10) [8, 25]: -1.19
Cmax [8, 26]: 0.0646 µM
Cmax [8, 27]: 0.0646 µM
Cmax [8, 28]: 0.0646 µM
Cmax [8, 29]: 0.0646 µM
Cmax [8, 30]: 0.0646 µM
DRI (Fa=0,5) [9, 32]: 6.9
IC50 ([9]; 72 h): 32.7 µM
IC50 [9]: 32.7 µM
DRI (Fa=0,5) ([10]; in Everolimus+Alpelisib): 76.7983
IC50 ([10]; 72 h): > 50 µM
IC50 [10]: > 50 µM
DRI (Fa=0,5) [11, 33]: 2.64
IC50 ([11]; 72 h): 30.3 µM
IC50 [11]: 30.3 µM
DRI (Fa=0,5) [12, 19]: 23.74
IC50 [12, 20]: > 50 µM
IC50 ([12]; read-out: IC50 in monotherapy): > 50 µM
DRI (Fa=0,5) ([13]; in Everolimus+Alpelisib): 4.73
IC50 ([13]; 72 h): 32.8 µM
IC50 [13]: 32.8 µM
DRI (Fa=0,5) [14, 19]: 16.55
IC50 [14]: > 50 µM
DRI (Fa=0,5) [15, 32]: 1.9
IC50 ([15]; 72 h): > 50 µM
IC50 [15]: > 50 µM
